Laboratory results taken from PubChem BioAssay AID248 (DTP/NCI, 2004).
Where “and” joins values, the source holds several entries; their conditions need not be identical. Equal entries are not always repeated. Toxic doses and inconclusive results are not listed. No stated cut-off is given here; in the data, active means T/C of 150% or more; inactive means T/C below 125%.

System: L1210 leukemia ip in BDF1 mice, survival T/C
Experiment: NCI In Vivo Anticancer Drug Screen. Data for tumor model L1210 Leukemia (intraperitoneal) in B6D2F1 (BDF1) mice
Conditions: endpoint: mean survival time, higher = longer survival
Method in brief: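 Value reflects the ratio of survival in compound-treated mice to survival in vehicle-treated controls, with both groups carrying the same transplanted tumor.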

[1] = dose: 100.0 mg/kg/injection, schedule: Q04DX003 (ip), vehicle: saline with Tween-80
[2] = dose: 200.0 mg/kg/injection, schedule: Q04DX003 (ip), vehicle: saline with Tween-80
[3] = dose: 400.0 mg/kg/injection, schedule: Q04DX003 (ip), vehicle: saline with Tween-80
[4] = dose: 100.0 mg/kg/injection, schedule: Q01DX009 (ip), vehicle: Klucel (hydroxypropylcellulose) (HPC)
[5] = dose: 100.0 mg/kg/injection, schedule: Q04DX003 (ip), vehicle: Klucel (hydroxypropylcellulose) (HPC)
[6] = dose: 200.0 mg/kg/injection, schedule: Q01DX009 (ip), vehicle: Klucel (hydroxypropylcellulose) (HPC)
[7] = dose: 200.0 mg/kg/injection, schedule: Q04DX003 (ip), vehicle: Klucel (hydroxypropylcellulose) (HPC)
[8] = dose: 400.0 mg/kg/injection, schedule: Q01DX009 (ip), vehicle: Klucel (hydroxypropylcellulose) (HPC)
[9] = dose: 400.0 mg/kg/injection, schedule: Q04DX003 (ip), vehicle: Klucel (hydroxypropylcellulose) (HPC)
[10] = dose: 50.0 mg/kg/injection, schedule: Q01DX001 (ip), vehicle: saline
[11] = dose: 100.0 mg/kg/injection, schedule: Q01DX001 (ip), vehicle: saline
[12] = dose: 200.0 mg/kg/injection, schedule: Q01DX001 (ip), vehicle: saline
[13] = dose: 400.0 mg/kg/injection, schedule: Q01DX001 (ip), vehicle: saline
[14] = dose: 100.0 mg/kg/injection, schedule: Q01DX009 (ip), vehicle: saline with Tween-80
[15] = dose: 200.0 mg/kg/injection, schedule: Q01DX009 (ip), vehicle: saline with Tween-80
[16] = dose: 400.0 mg/kg/injection, schedule: Q01DX009 (ip), vehicle: saline with Tween-80

Measured: T/C

Cc1ccc(CC#N)c(-c2c(CC#N)ccc(C)c2C)c1C
inactive: dose: 100.0 mg/kg/injection, schedule: Q04DX002 (ip), vehicle: gum acacia 87 % of control | dose: 200.0 mg/kg/injection, schedule: Q04DX002 (ip), vehicle: gum acacia 93 % of control | dose: 400.0 mg/kg/injection, schedule: Q04DX002 (ip), vehicle: gum acacia 93 % of control

CCOC(=O)C1=C(C)N(Cc2ccccc2)C(C)=C(C(=O)OCC)C1(C)C
inactive: [1] 101 % of control | [2] 98 % of control | [3] 106 % of control

CN(C)S(=O)(=O)Nc1cc(Cl)c(NS(=O)(=O)N(C)C)cc1Cl
inactive: [4] 94 % of control | [5] 91 % of control | [6] 96 % of control | [7] 93 % of control | [8] 102 % of control | [9] 98 % of control

CCOC(=O)c1cccc2ccc[n+](C)c12
inactive: dose: 37.5 mg/kg/injection, schedule: Q04DX003 (ip), vehicle: saline 91 % of control | dose: 75.0 mg/kg/injection, schedule: Q01DX001 (ip), vehicle: saline 97 % of control | dose: 75.0 mg/kg/injection, schedule: Q04DX003 (ip), vehicle: saline 91 % of control | dose: 150.0 mg/kg/injection, schedule: Q01DX001 (ip), vehicle: saline 97 % of control | dose: 150.0 mg/kg/injection, schedule: Q04DX003 (ip), vehicle: saline 95 % of control

CSC(C)(S(C)(=O)=O)S(C)(=O)=O
inactive: dose: 75.0 mg/kg/injection, schedule: Q01DX001 (ip), vehicle: saline with Tween-80 102 % of control | dose: 150.0 mg/kg/injection, schedule: Q01DX001 (ip), vehicle: saline with Tween-80 96 % of control | dose: 300.0 mg/kg/injection, schedule: Q01DX001 (ip), vehicle: saline with Tween-80 98 % of control

N#Cc1ccccc1CC(O)(c1ccccc1)c1ccccc1
inactive: [10] 96 % of control | [11] 102 % of control | [12] 93 % of control | [13] 91 % of control

CC(=O)Nc1cc([N+](=O)[O-])ccc1CC(O)c1ccccc1Cl (stereo not drawn)
inactive: [4] 92 % of control | [5] 97 % of control | [6] 103 % of control | [7] 108 % of control | [8] 104 % of control | [9] 103 % of control

CN(C)C=Nc1ccc(Cl)cc1
inactive: dose: 25.0 mg/kg/injection, schedule: Q01DX001 (ip), vehicle: other 93 % of control | dose: 50.0 mg/kg/injection, schedule: Q01DX001 (ip), vehicle: other 101 % of control | [10] 100 % of control | dose: 50.0 mg/kg/injection, schedule: Q04DX003 (ip), vehicle: other 90 % of control | dose: 100.0 mg/kg/injection, schedule: Q01DX001 (ip), vehicle: other 103 % of control and 91 % of control | dose: 100.0 mg/kg/injection, schedule: Q04DX003 (ip), vehicle: other 102 % of control | dose: 200.0 mg/kg/injection, schedule: Q04DX003 (ip), vehicle: other 101 % of control

N#Cc1ncc(-c2ccccc2)nc1Cl
inactive: dose: 50.0 mg/kg/injection, schedule: Q01DX009 (ip), vehicle: saline with Tween-80 94 % of control | [14] 96 % of control | [1] 97 % of control | [15] 92 % of control | [2] 95 % of control

CCCCCC(C)O[Si](C)c1cccc2ccccc12 (stereo not drawn)
inactive: [14] 98 % of control | [1] 92 % of control | [15] 93 % of control | [2] 92 % of control | [16] 104 % of control | [3] 101 % of control

CCOc1ccn(C2OC(CO)C(OC3OC(COC(C)=O)C(OC(C)=O)C(OC(C)=O)C3OC(C)=O)C(OC(C)=O)C2OC(C)=O)c(=O)n1 (stereo not drawn)
inactive: dose: 22.5 mg/kg/injection, schedule: Q01DX001 (ip), vehicle: carboxymethylcellulose (CMC) 100 % of control | dose: 45.0 mg/kg/injection, schedule: Q01DX001 (ip), vehicle: carboxymethylcellulose (CMC) 103 % of control | dose: 90.0 mg/kg/injection, schedule: Q01DX001 (ip), vehicle: carboxymethylcellulose (CMC) 97 % of control | dose: 180.0 mg/kg/injection, schedule: Q01DX001 (ip), vehicle: carboxymethylcellulose (CMC) 100 % of control

O=C1c2ccccc2-c2cc(-c3ccccc3)cc(-c3ccccc3)c21
inactive: [4] 96 % of control | [5] 104 % of control | [6] 92 % of control | [8] 94 % of control | [9] 88 % of control

CCOc1ccc(NC(=O)CCC(=O)O)cc1
inactive: [4] 91 % of control | [6] 93 % of control | [8] 91 % of control

COc1ccc(NC(=O)Oc2c(C(C)C)cccc2C(C)C)cc1
inactive: [5] 100 % of control | [7] 96 % of control | [9] 92 % of control

CCCCCCCCCCCCN=C(N)N/C(N)=N/S(=O)(=O)c1ccc(OCCCCC)cc1
inactive: dose: 100.0 mg/kg/injection, schedule: Q04DX002 (ip), vehicle: Klucel (hydroxypropylcellulose) (HPC) 100 % of control | dose: 200.0 mg/kg/injection, schedule: Q04DX002 (ip), vehicle: Klucel (hydroxypropylcellulose) (HPC) 95 % of control | dose: 400.0 mg/kg/injection, schedule: Q04DX002 (ip), vehicle: Klucel (hydroxypropylcellulose) (HPC) 95 % of control

S=C(NNc1ccccc1)NC1CCCCC1
inactive: dose: 150.0 mg/kg/injection, schedule: Q01DX009 (ip), vehicle: saline with Tween-80 95 % of control | dose: 225.0 mg/kg/injection, schedule: Q01DX009 (ip), vehicle: saline with Tween-80 97 % of control | dose: 335.0 mg/kg/injection, schedule: Q01DX009 (ip), vehicle: saline with Tween-80 92 % of control

O=C1c2ccccc2C(=O)N1CCCO
inactive: dose: 50.0 mg/kg/injection, schedule: Q01DX001 (ip), vehicle: Klucel (hydroxypropylcellulose) (HPC) 96 % of control | dose: 100.0 mg/kg/injection, schedule: Q01DX001 (ip), vehicle: Klucel (hydroxypropylcellulose) (HPC) 100 % of control | dose: 200.0 mg/kg/injection, schedule: Q01DX001 (ip), vehicle: Klucel (hydroxypropylcellulose) (HPC) 102 % of control

Cc1ccc(C(=O)N2CCCCC2)c[n+]1C
inactive: [11] 104 % of control | [12] 100 % of control | [13] 105 % of control

CC1=CC=CC(C)(Cc2ccc(-c3ccc(CC4(C)C=CC=C(C)C4=O)cc3)cc2)C1=O (stereo not drawn)
inactive: dose: 100.0 mg/kg/injection, schedule: Q01DX001 (ip), vehicle: saline sonified 92 % of control | dose: 200.0 mg/kg/injection, schedule: Q01DX001 (ip), vehicle: saline sonified 90 % of control | dose: 400.0 mg/kg/injection, schedule: Q01DX001 (ip), vehicle: saline sonified 95 % of control

Cc1[nH]ccc2c(C)c3nc4c5ccccc5ccc4c3cc12
inactive: dose: 60.0 mg/kg/injection, schedule: Q01DX Z (ip), vehicle: carboxymethylcellulose (CMC) 98 % of control | dose: 120.0 mg/kg/injection, schedule: Q01DX Z (ip), vehicle: carboxymethylcellulose (CMC) 98 % of control | dose: 240.0 mg/kg/injection, schedule: Q01DX Z (ip), vehicle: carboxymethylcellulose (CMC) 90 % of control

Cc1ccc(-c2nn3c(-c4ccccc4)nnc3o2)cc1
inactive: [14] 97 % of control | [15] 94 % of control | [16] 102 % of control

O=C(c1ccc([N+](=O)[O-])cc1)C1NC1c1ccc([N+](=O)[O-])cc1 (stereo not drawn)
inactive: dose: 50.0 mg/kg/injection, schedule: Q01DX001 (ip), vehicle: carboxymethylcellulose (CMC) 108 % of control | dose: 100.0 mg/kg/injection, schedule: Q01DX001 (ip), vehicle: carboxymethylcellulose (CMC) 100 % of control | dose: 200.0 mg/kg/injection, schedule: Q01DX001 (ip), vehicle: carboxymethylcellulose (CMC) 105 % of control | dose: 400.0 mg/kg/injection, schedule: Q01DX001 (ip), vehicle: carboxymethylcellulose (CMC) 97 % of control

COc1cc2c(cc1OC(C)=O)C(OC(C)=O)CCCC2 (stereo not drawn)
inactive: dose: 5.0 mg/kg/injection, schedule: Q01DX001 (ip), vehicle: saline 109 % of control | dose: 10.0 mg/kg/injection, schedule: Q01DX001 (ip), vehicle: saline 109 % of control | dose: 20.0 mg/kg/injection, schedule: Q01DX001 (ip), vehicle: saline 97 % of control | dose: 40.0 mg/kg/injection, schedule: Q01DX001 (ip), vehicle: saline 105 % of control

CCCCSc1cc(C)nc(SCCCC)n1
inactive: dose: 50.0 mg/kg/injection, schedule: Q01DX009 (ip), vehicle: Klucel (hydroxypropylcellulose) (HPC) 101 % of control | [4] 101 % of control | [6] 101 % of control

CCOC(=O)Cc1ccc2ccccc2c1
inactive: [1] 100 % of control | [2] 96 % of control | [3] 104 % of control
